Laboratory results from EP0973746B1, “SUBSTITUTED 3-CYANO QUINOLINES” (Wyeth Holdings Corporation, priority 1997, dated 1998).
Where “and” joins values, the source holds several entries; their conditions need not be identical. Equal values may be shown once.

biological target: recombinant human MEK 1 (MAPKK) and recombinant human ERK2 (MAPK); experiment: Mitogen Activated Protein Kinase (MAPK) assay, two component coupled MEK 1 / ERK2; format: biochemical; conditions: separate entries for the same compound = evaluated more than one time;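 note: MEK 1-activated ERK2 phosphorylates MBP or Myc peptide with 33P-ATP, filter capture and scintillation counting, inhibitor preincubated with ERK2 30 min at 0 °C, inhibition relative to uninhibited control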

Question: With `COCCOc1ccc2ncc(C#N)c(Nc3cccc(N(C)C)c3)c2c1OCCOC` [Example 117] as the compound, how does the IC50 read?
Answer: The IC50 was 40 µM and 28 µM.

Question: Which IC50 does the source give for `COc1cc2ncc(C#N)c(Nc3ccc(F)c(Cl)c3)c2cc1OCCCN1CCOCC1` [Example 125] here?
Answer: The IC50 was greater than 100 µM.

Question: Which IC50 does the source give for `COc1cc2ncc(C#N)c(Nc3cccc(Br)c3)c2cc1OCCCN1CCOCC1` [Example 126] here?
Answer: The IC50 was greater than 100 µM.

Question: For `N#Cc1cnc2ccc([N+](=O)[O-])cc2c1Nc1cccc(I)c1` [Example 131, 4-[(3-Iodophenyl)amino]-6-nitro-3-quinolinecarbonitrile], which IC50 is on record?
Answer: Its IC50 is greater than 100 µM.

Question: How did the IC50 turn out when `Cc1cccc(Nc2c(C#N)cnc3ccc([N+](=O)[O-])cc23)c1` [Example 134] was run?
Answer: The IC50 was > 100 µM and 80 µM.

Question: Which IC50 does the source give for `N#Cc1cnc2ccc(N)cc2c1Nc1cccc(Cl)c1` [Example 136, 6-Amino-4-[(3-chlorophenyl)amino]-3-quinolinecarbonitrile] here?
Answer: Its IC50 is 70 µM and > 100 µM.

Question: `COc1cccc(Nc2c(C#N)cnc3ccc(N)cc23)c1` [Example 141, 6-Amino-4-[(3-methoxyphenyl)amino]-3-quinolinecarbonitrile] was tested. Which IC50 did it give?
Answer: Its IC50 is 35 µM.

Question: Which IC50 does the source give for `N#Cc1cnc2ccc(N)cc2c1Nc1ccc(F)c(Cl)c1` [Example 149, 6-Amino-4-[(3-chloro-4-fluorophenyl)amino]-3-quinolinecarbonitrile] here?
Answer: The IC50 was 2 µM and 4 µM.

Question: For `N#Cc1cnc2ccc([N+](=O)[O-])cc2c1Nc1ccc(F)c(Cl)c1` [Example 150, 4-[(3-chloro-4-fluorophenyl)amino]-6-nitro-3-quinolinecarbonitrile], which IC50 is on record?
Answer: The IC50 was greater than 100 µM.

Question: For `N#Cc1cnc2ccc([N+](=O)[O-])cc2c1Nc1ccc(Br)cc1` [Example 153, 4-[(4-Bromophenyl)amino]-6-nitro-3-quinolinecarbonitrile], which IC50 is on record?
Answer: The IC50 was greater than 100 µM.

Question: How did the IC50 turn out when `N#Cc1cnc2ccc([N+](=O)[O-])cc2c1Nc1ccc(Sc2ccccc2)c(Cl)c1` [Example 159, 4-[(3-Chloro-4-thiophenoxyphenyl)amino]-6-nitro-3-quinolinecarbonitrile] was run?
Answer: Its IC50 is greater than 100 µM.

Question: Which IC50 does the source give for `CN(C)CC#CC(=O)Nc1ccc2ncc(C#N)c(Nc3ccc(F)c(Br)c3)c2c1` [Example 197, N-[4-[(3-Bromo-4-fluorophenyl)amino]-3-cyano-6-quinolinyl]-4-dimethylamino-2-butynamide] here?
Answer: The IC50 was 35 µM.

Question: `COc1cc2ncc(C#N)c(Nc3ccc(C)c(Br)c3)c2cc1OC` [Example 248, 4-(3-Bromo-4-methyl-phenylamino)-6.7-dimethoxy-quinoline-3-carbonitrile] was tested. Which IC50 did it give?
Answer: The IC50 was 8 µM.

Question: Which IC50 does the source give for `CCOc1cc2ncc(C#N)c(Nc3cccc(C(C)=O)c3)c2cc1OCC` [Example 257, 4-(3-acetylphenylamino)-6,7-diethoxy-3-quinolinecarbonitrile] here?
Answer: The IC50 was greater than 100 µM.

Question: With `COc1cc2ncc(C#N)c(Nc3cccc(NC(C)=O)c3)c2cc1OC` [Example 265, 4-(3-Acetamidophenylamino)-6,7-dimethoxy-3-quinolinecarbonitrile] as the compound, how does the IC50 read?
Answer: The IC50 was 20 µM.

Question: With `CC#CC(=O)Nc1cccc(Nc2c(C#N)cnc3cc(OC)c(OC)cc23)c1` [Example 266, 4-[3-(2-Butynoylamino)phenylamino]1-6,7-dimethoxy-3-quinolinecarbonitrile] as the compound, how does the IC50 read?
Answer: The IC50 was greater than 100 µM.

Question: For `COc1cc2ncc(C#N)c(Nc3cccc(CCl)c3)c2cc1OC` [Example 268, 4-[3-(Chloromethyl)phenylamino]-6,7-dimethoxy-3-quinolinecarbonitrile], which IC50 is on record?
Answer: Its IC50 is 15 µM.

Question: How did the IC50 turn out when `COc1cc2ncc(C#N)c(Nc3cc(C)c(O)c(C)c3)c2cc1OC` [Example 288, 4-(4-Hydroxy-3,5-dimethyl-phenylamino)-6,7-dimethoxy-quinoline-3-carbinitile] was run?
Answer: The IC50 was 16 µM.

Question: For `COc1cc2ncc(C#N)c(Nc3cccnc3)c2cc1OC` [Example 293, 6,7-Dimethoxy-4-(pyridin-3-ylamino)-quinoline-3-carbonitrile], which IC50 is on record?
Answer: The IC50 was greater than 100 µM.

Question: `COc1cc2ncc(C#N)c(Nc3ccc(O)cc3Cl)c2cc1OC` [Example 296, 4-(2-Chloro-4-hydroxy-phenylamino)-6,7-dimethoxy-quinoline-3-carbonitrile] was tested. Which IC50 did it give?
Answer: The IC50 was 3.5 µM.

Question: How did the IC50 turn out when `COc1cc2ncc(C#N)c(Nc3ccc(SC)cc3)c2cc1OC` [Example 298, 6.7-Dimethoxy-4-(4-methylsulfanyl-phenylamino)-quinoline-3-carbonitrile] was run?
Answer: The IC50 was less than 1 µM.
